Measurements: EP0995757A2, “Bivalent inhibitors of the proteasome” (Max-Planck-Gesellschaft zur Förderung der Wissenschaften …, priority 1998, dated 2000)
Where a SMILES comes first, the peptide text is derived from it.

Legend:
yeast proteasome β2/β2' [1] = target: T1, yeast proteasome β2/β2' (Saccharomyces cerevisiae, UniProt P25043); experiment: Proteasome assay, trypsin-like activity (fluorogenic substrate Bz-Phe-Val-Arg-AMC); assay type: biochemical; parameters: endogenous in cells; host or cells: Saccharomyces cerevisiae; settings: Bz-Phe-Val-Arg-AMC 8 µM, inhibitor incubated 1 h at 37°C, Tris-buffer pH 7.5
Protocol: (§1) A solution of proteasome from Saccharomyces cerivisiae in Tris-buffer (pH 7.5; 450 µl; 6.67 nM for PGPH, 5.56 nM for trypsin-like and 1.11 nM for chymotrypsin-like activity) was incubated with the inhibitors at varying concentrations ([…]) for 1 h at 37°C. The fluorogenic substrates for PGPH (Z-Leu-Leu-Glu-βNA, 40 µM), trypsin-like (Bz-Phe-Val-Arg-AMC, 8 µM) and chymotrypsin-like assays (Suc-Leu-Leu-Val-Tyr-AMC, 8 µM) were dissolved in the same Tris-buffer with a minimum amount of DMSO and added to the enzyme solution at 37 °C to reach a final volume of 500 µl. Fluorescence excitation/emission wavelengths were 360 nm/460 nm for AMC and 335 nm/410 nm for βNA. The rates of hydrolysis were monitored by the fluorescence increase and the initial linear portions of curves (100-300 sec) were used to calculate the IC50 values.

yeast proteasome β1/β1' [2] = target: T2, yeast proteasome β1/β1' (Saccharomyces cerevisiae, UniProt P38624); experiment: Proteasome assay, PGPH activity (fluorogenic substrate Z-Leu-Leu-Glu-βNA); assay type: biochemical; parameters: Three of the seven different β-type subunits are processed at the N-terminal nucleophile, the threonine-1 residue; endogenous in cells; host or cells: Saccharomyces cerevisiae; settings: Z-Leu-Leu-Glu-βNA 40 µM, inhibitor incubated 1 h at 37°C, Tris-buffer pH 7.5
Protocol: as §1

yeast proteasome β5/β5' [3] = target: T3, yeast proteasome β5/β5' (Saccharomyces cerevisiae, UniProt P30656); experiment: Proteasome assay, chymotrypsin-like activity (fluorogenic substrate Suc-Leu-Leu-Val-Tyr-AMC); assay type: biochemical; parameters: endogenous in cells; host or cells: Saccharomyces cerevisiae; settings: Suc-Leu-Leu-Val-Tyr-AMC 8 µM, inhibitor incubated 1 h at 37°C, Tris-buffer pH 7.5
Protocol: as §1

yeast 20S proteasome = target: T4, yeast 20S proteasome (Saccharomyces cerevisiae, UniProt P25043+P30656+P38624); experiment: X-ray structure analysis of proteasome/inhibitor complexes (crystal soaking); parameters: species or system S. cerivisiae; settings: crystals soaked with 5 mM inhibitor for 12h, no competing substrate
T4 construct: Three of the seven different β-type subunits are processed at the N-terminal nucleophile, the threonine-1 residue; from tissue; host or cells: Saccharomyces cerevisiae (natural 20S complex)
Protocol: Crystals of […] proteasomes from S. cerivisiae were grown in hanging drops at 24 °C as described previously (Groll et al., Nature 386, 463-471, 1997). The protein concentration used for crystallization was 40 mg/ml in 10 mM Tris-HCl (pH 7.5) and 1 mM EDTA. The drops contained 4 µl protein and 2 µl reservoir solution with 30 mM magnesium acetate, 100 mM morpholino-ethane-sulphonic acid (pH 6.5) and 11 % MPD. The inhibitors were soaked with a final concentration of 5 mM for 12h. Data were collected using synchrotron radiation with λ = 1.1 Å on the BW6-beamline at the DESY-Centre/Hamburg/Germany (Table 1). Crystals were soaked in a cryoprotecting buffer (30% MPD, 28 mM magnesium acetate, 100 mM morpholino-ethane-sulfonic acid (pH 6.9) and frozen in a stream of cold nitrogen gas at 90 K (Oxford Cryo Systems). X-ray intensities were evaluated by using the MOSFILM program package (version 5.3) and data reduction was performed with CCP4. The anisotropy of diffraction was corrected by an overall anisotropic temperature factor by comparing observed and calculated structure amplitudes using X-PLOR (Brunger, A. (1992) X-PLOR: A System for X-Ray Crystallography and NMR, version 3.1; Yale University Press, New Haven, CT). Electron density was averaged 10 times over the 2-fold non crystallographic symmetry axis using MAIN (Turk, D., Ph. D. Thesis, Technical University, Munich, 1992). […]

yeast proteasome β2/β2' [4] = target: T1, yeast proteasome β2/β2'; experiment: Proteasome assay, trypsin-like activity (fluorogenic substrate Bz-Phe-Val-Arg-AMC); assay type: biochemical, Saccharomyces cerivisiae; parameters: from tissue; host or cells: Saccharomyces cerevisiae (natural complex from yeast; I conclude this from 'proteasome from'); settings: for increase in binding affinity: compared to the monovalent inhibitors 1, 2, 3 and 5, β2/β2'; for IC50: trypsin-like activity, Bz-Phe-Val-Arg-AMC 8 µM, inhibitor incubated 1 h at 37°C, Tris-buffer pH 7.5
Protocol: as §1

yeast proteasome β5/β5' [5] = target: T3, yeast proteasome β5/β5'; experiment: Proteasome assay, chymotrypsin-like activity (fluorogenic substrate Suc-Leu-Leu-Val-Tyr-AMC); assay type: biochemical, Saccharomyces cerivisiae; parameters: from tissue; host or cells: Saccharomyces cerevisiae (natural complex from yeast; I conclude this from 'proteasome from'); settings: for IC50: chymotrypsin-like activity, Suc-Leu-Leu-Val-Tyr-AMC 8 µM, inhibitor incubated 1 h at 37°C, Tris-buffer pH 7.5; for increase in binding affinity: compared to the monovalent inhibitors 1, 2, 3 and 5, β5/β5'
Protocol: as §1

yeast proteasome β1/β1' [6] = target: T2, yeast proteasome β1/β1'; experiment: Proteasome assay, PGPH activity (fluorogenic substrate Z-Leu-Leu-Glu-βNA); assay type: biochemical, Saccharomyces cerivisiae; parameters: Three of the seven different β-type subunits are processed at the N-terminal nucleophile, the threonine-1 residue; from tissue; host or cells: Saccharomyces cerevisiae (natural complex from yeast; I conclude this from 'proteasome from'); settings: Z-Leu-Leu-Glu-βNA 40 µM, inhibitor incubated 1 h at 37°C, Tris-buffer pH 7.5
Protocol: as §1

Compound | IC50 (yeast proteasome β2/β2' [1]) [µM] | IC50 (yeast proteasome β1/β1' [2]) [µM] | IC50 (yeast proteasome β5/β5' [3]) [µM] | active sites occupied by the inhibitory head group in the X-ray structure (yeast 20S proteasome) | increase in binding affinity (yeast proteasome β2/β2' [4]) | increased activity (yeast proteasome β2/β2' [4]; homobivalent versus related monovalent inhibitors, tryptic activity β2/β2') [fold] | IC50 (yeast proteasome β2/β2' [4]) [µM] | IC50 (yeast proteasome β5/β5' [5]) [µM] | IC50 (yeast proteasome β1/β1' [6]) [µM] | increase in binding affinity (yeast proteasome β5/β5' [5]) | increased activity (yeast proteasome β5/β5' [5]; homobivalent versus related monovalent inhibitors, chymotryptic activity β5/β5') [fold]
CC(=O)N[C@@H](CCCNC(=N)N)C(=O)N[C@H](C(=O)N[C@H](C=O)CCCNC(=N)N)C(C)C [compound 2, Ac-Arg-Val-Arg-H] (Ac-Arg-Val-Arg-aldehyde) | 6.4 | > 100 | > 100 |  |  |  |  |  |  |  | 
(PEG)19-25-[NH-CO-(CH2)2-CO-Arg- Val-Arg-H]2 [compound 6] |  |  |  | only in the two β2 and β2' active sites | about two orders of magnitude | 100 | 0.071 | > 100 | > 100 |  | 
(PEG)19-25-[NH-CO-(CH2)2-CO-Arg-Val-Arg-H][NH-CO-(CH2)2-CO-Leu-Leu-Nle-H] [compound 7] |  |  |  |  | about two orders of magnitude |  | 0.097 | 0.031 | > 100 | about two orders of magnitude | 
HOOC-(CH2)2-CO-NH-(PEG)19-25-NH-CO-(CH2)2-CO-Arg-Val-Arg-H [compound 5] |  |  |  |  |  |  | 8.2 | > 100 | > 100 |  | 
HOOC-(CH2)2-CO-NH-(PEG)19-25-NH-(CH2)2-CO-Leu-Leu-Nle-H [compound 3] |  |  |  |  |  |  | > 100 | 1.8 | > 100 |  | 
(PEG)19-25-[NH- CO- (CH2)2- CO-Leu-Leu-Nle-H]2 [compound 4] |  |  |  | occupies all six active sites |  |  | > 100 | 0.017 | > 100 | about two orders of magnitude | 100
